# Test results as given in patent publication US20140371262A1, “PREVENTIVE AND/OR THERAPEUTIC AGENT FOR THROMBOEMBOLISM IN THROMBOEMBOLISM PATIENT WITH SEVERE RENAL IMPAIRMENT” (Daiichi Sankyo Company, Limited, priority 2011, published 2014).
# Experiments:
# [1] = tested on: patients with moderate to-high-risk atrial fibrillation; assay: ENGAGE-AF TIMI-48 phase 3 study of edoxaban versus warfarin in atrial fibrillation
# NVAF patients = assay: Late phase-II trial targeting NVAF patient in Japan (thromboembolic and bleeding events, 12 weeks); assay type: in vivo, human; details: warfarin group (PT-INR adjusted to 2.0 to 3.0; 1.6 to 2.6 for 70 years or older), 12 weeks
# [2] = subgroup whose CLCR had become <30 mL/min during the trial, edoxaban 15 mg (N = 349), warfarin dose adjusted (N = 367)
# [3] = warfarin, dose-adjusted to INR 2.0 to 3.0
smiles,measurement,setting,value
"CC(=O)CC(c1ccccc1)c1c(O)c2ccccc2oc1=O (stereo not shown) [warfarin, reference compound]",ACM (all cause mortality): # of events,[1]; [2],13
same,Disabling Stroke: # of events,[1]; [2],3
same,Disabling Stroke: Event Rate,[1]; [2],0.48 %/yr
same,Fatal Bleed: # of events,[1]; [2],2
same,Fatal Bleed: Event Rate,[1]; [2],0.32 %/yr
same,Fatal SEE: # of events,[1]; [2],0
same,Fatal SEE: Event Rate,[1]; [2],0.00 %/yr
same,Fatal Stroke: # of events,[1]; [2],3
same,Fatal Stroke: Event Rate,[1]; [2],0.48 %/yr
same,"First Disabling or Fatal Stroke, Fatal SEE, LT or Fatal Bleed, or ACM: # of events",[1]; [2],21
same,"First Disabling or Fatal Stroke, Fatal SEE, LT or Fatal Bleed, or ACM: Event Rate",[1]; [2],3.36 %/yr
same,"First Stroke, SEE or TIA: # of events",[1]; [2],14
same,"First Stroke, SEE or TIA: Event Rate",[1]; [2],2.26 %/yr
same,"First Stroke, SEE, Major Bleed, or ACM: # of events",[1]; [2],49
same,"First Stroke, SEE, Major Bleed, or ACM: Event Rate",[1]; [2],8.04 %/yr
same,LT Bleed (life threatening): # of events,[1]; [2],5
same,LT Bleed (life threatening): Event Rate,[1]; [2],0.80 %/yr
same,Annualized rate of death from cardiovascular causes,[1]; [3],3.17%
same,Annualized rate of major bleeding,[1]; [3],3.43%
same,Annualized rate of the primary end point (stroke or systemic embolism) during treatment,[1]; [3],1.50%
same,"Rate of the key secondary end point (composite of stroke, systemic embolism, or death from cardiovascular causes)",[1]; [3],4.43%
same,"Incidence of bleeding events (major, clinically relevant non-major and minor bleeding in total)",NVAF patients,20.0%
